For one series, the target named is HIV-1 integrase (Human immunodeficiency virus type 1 group M subtype B, UniProt P12497). Kind of series: biochemical. Format: biochemical. How it is done: In Vitro Integrase Assay.
Integrase reactions were carried out by adding drugs or an equivalent volume of 100% dimethyl sulfoxide (DMSO; used as the drug solvent) to a mixture of 20 nM DNA and 400 nM integrase in 50 mM morpholinepropanesulfonic acid (pH 7.2), 7.5 mM MgCl2, and 14 mM 2-mercaptoethanol. Reactions were performed at 37° C. for 2 h and quenched by the addition of an equal volume of loading buffer (formamide containing 1% sodium dodecyl sulfate, 0.25% bromophenol blue, and xylene cyanol). […] Dried gels were visualized using a Typhoon 8600 (GE Healthcare, Piscataway, N.J.). Densitometric analyses were performed using ImageQuant 5.1 software from GE Healthcare.

The nature of a further series: in vitro. Format: cell-based, human. The following applies: human, Table 3; 50% reduction in the level of ATP in HOS cells. How it is done:
Cellular Cytotoxicity Assay.
On the day of the screen, cells were treated with compounds at the appropriate concentration range chosen and incubated at 37° C. for 48 hrs. Cytotoxicity was measured by monitoring ATP levels via a luciferase reporter assay. Cells were lysed in 50 μL cell lysis buffer (PerkinElmer, Waltham, Mass.) and shaken at 700 rpm at room temperature for 5 mins After the addition of 50 μL of ATPlite buffer (PerkinElmer) directly onto the lysed cells and shaking at 700 rpm at room temperature for 5 mins, ATP levels were monitored by measuring luciferase activity using a microplate reader. Activity was normalized to cytotoxicity in the absence of target compounds. KaleidaGraph (Synergy Software, Reading, Pa.) was used to perform regression analysis on the data. CC50 values were determined from the fit model.

Series [1] deals with HIV-1 constructs containing wild-type IN. The experiment in a line: microbe, parasite or virus in culture. It is filed as cell-based. The following applies: Human immunodeficiency virus 1; Table 3; WT IN; read-out: EC50 (nM, WT). An excerpt: Single-Round HIV-1 Infectivity Assay.
Human embryonyl kidney cell culture cell line 293 was acquired from the American type Culture Collection (ATCC).
The virus-containing supernatants were then harvested, clarified by low-speed centrifugation, filtrated, and diluted for preparation in infection assays. […] Activity was normalized to infectivity in the absence of target compounds. KaleidaGraph (Synergy Software, Reading, Pa.) was used to perform regression analysis on the data. EC50 values were determined from the fit model.

Setting [2] is: Table 1, 3′-processing, read-out: IC50 Values 3′-Processing.
[3] abbreviates: Table 1, strand transfer, read-out: IC50 Values Strand transfer.
The mark [4] stands for this setting: read-out: IC50 (3^+-Processing).
The mark [5] stands for this setting: read-out: IC50 (Strand Transfer).
Setting [6] is: Table 4, 3′-processing, read-out: IC50 (3^+-Processing).
Where [7] appears, read: Table 4, strand transfer, read-out: IC50 (Strand Transfer).

Like-named read-outs stand apart in the source and are kept apart here.

The IC50 is the midpoint of a concentration-inhibition curve. Regarding `O=C(NCc1ccc(F)cc1F)c1c(O)c2cccnc2[nH]c1=O` [XZ352, N-(2,4-difluorobenzyl)-4-hydroxy-2-oxo-1,2-dihydro-1,8-naphthyridine-3-carboxamide], the 50% inhibitory concentration (IC50) on HIV-1 integrase (setting [2]) is above 333 µM; at HIV-1 integrase (setting [3]), 7.1 ± 1.8 µM.
Take `O=C(NCc1ccc(F)cc1F)c1cc2ccccc2n(O)c1=O` [XZ353, N-(2,4-difluorobenzyl)-1-hydroxy-2-oxo-1,2-dihydroquinoline-3-carboxamide]: the IC50 was above 333 µM on HIV-1 integrase (setting [2]) and 19.7 ± 2.7 µM at HIV-1 integrase (setting [3]).
The matching figures for `O=C(NCc1ccc(F)cc1)c1c(O)c2cccnc2[nH]c1=O` [XZ364, N-(4-fluorobenzyl)-4-hydroxy-2-oxo-1,2-dihydro-1,8-naphthyridine-3-carboxamide]: 136 ± 16 µM and 5.1 ± 1.5 µM.
Take `O=C(NCc1ccc(F)c(Cl)c1)c1c(O)c2cccnc2[nH]c1=O` [XZ366, N-(3-chloro-4-fluorobenzyl)-4-hydroxy-2-oxo-1,2-dihydro-1,8-naphthyridine-3-carboxamide]: the figures for the IC50 on HIV-1 integrase (setting [2]) and on HIV-1 integrase (setting [3]) were 125 ± 15 µM and 7.8 ± 1.1 µM, respectively.
As to `O=C(NCc1ccc(F)c(F)c1)c1c(O)c2cccnc2[nH]c1=O` [XZ368, N-(3,4-difluorobenzyl)-4-hydroxy-2-oxo-1,2-dihydro-1,8-naphthyridine-3-carboxamide], the IC50 at HIV-1 integrase (setting [2]) amounted to 93 ± 8 µM; on HIV-1 integrase (setting [3]), 8.1 ± 1.8 µM.
As for `O=C(NCc1ccc(F)cc1F)c1cc2cccc(O)c2n(O)c1=O` [XZ369, N-(2,4-difluorobenzyl)-1,8-dihydroxy-2-oxo-1,2-dihydroquinoline-3-carboxamide], the IC50 came out at 43 ± 5 µM on HIV-1 integrase (setting [2]) and 18 ± 7 µM at HIV-1 integrase (setting [3]).
In the case of `COc1cccc2cc(C(=O)NCc3ccc(F)cc3F)c(=O)n(O)c12` [XZ370, N-(2,4-difluorobenzyl)-1-hydroxy-8-methoxy-2-oxo-1,2-dihydroquinoline-3-carboxamide], the IC50 at HIV-1 integrase (setting [2]) and on HIV-1 integrase (setting [3]) was above 333 µM throughout.
A word on the CC50: it is the concentration at which the toxic effect on the cells reaches its halfway point. A word on the EC50: it is the concentration giving half of the maximal effect. `CNc1c(C(=O)NCc2ccc(F)cc2F)c(=O)n(O)c2ncccc12` [XZ371, N-(2,4-difluorobenzyl)-1-hydroxy-4-(methylamino)-2-oxo-1,2-dihydro-1,8-naphthyridine-3-carboxamide]: the IC50 at HIV-1 integrase (setting [4]) was 3.7 ± 0.4 µM; at HIV-1 integrase (setting [5]) it was 0.027 ± 0.004 µM. In the series “in vitro”, the CC50 is above 250 µM. In series [1], the EC50 was 3.1 ± 0.6 nM.
`O=C(NCc1ccc(F)c(Cl)c1)c1cc2cccc(O)c2n(O)c1=O` [XZ374, N-(3-chloro-4-fluorobenzyl)-1,8-dihydroxy-2-oxo-1,2-dihydroquinoline-3-carboxamide]: the IC50 at HIV-1 integrase (setting [2]) worked out at 17 ± 1 µM; at HIV-1 integrase (setting [3]) it was 0.53 ± 0.13 µM.
Consider `O=C(NCc1ccc(F)c(F)c1)c1cc2cccc(O)c2n(O)c1=O` [XZ375, N-(3,4-difluorobenzyl)-1,8-dihydroxy-2-oxo-1,2-dihydroquinoline-3-carboxamide], for which the IC50 stood at 24 ± 3 µM on HIV-1 integrase (setting [2]) and 0.78 ± 0.22 µM on HIV-1 integrase (setting [3]).
Regarding `CCCCCNc1c(C(=O)NCc2ccc(F)cc2F)c(=O)n(O)c2ncccc12` [XZ380, N-(2,4-difluorobenzyl)-1-hydroxy-2-oxo-4-(pentylamino)-1,2-dihydro-1,8-naphthyridine-3-carboxamide], the values for the 50% inhibitory concentration (IC50) on HIV-1 integrase (setting [4]) and at HIV-1 integrase (setting [5]) were 8.2 ± 1.6 µM and 0.024 ± 0.009 µM, respectively. Also, the CC50 in the series “in vitro” was found to be 94.2 ± 24.4 µM. In series [1], the EC50 is 7.4 ± 1.4 nM.
For the compound `CC(C)Nc1c(C(=O)NCc2ccc(F)cc2F)c(=O)n(O)c2ncccc12` [XZ381, N-(2,4-difluorobenzyl)-1-hydroxy-4-(isopropylamino)-2-oxo-1,2-dihydro-1,8-naphthyridine-3-carboxamide], the IC50 on HIV-1 integrase (setting [4]) was 1.8 ± 0.2 µM; on HIV-1 integrase (setting [5]), 0.016 ± 0.004 µM. For the same compound, the half-maximal cytotoxic concentration (CC50) in “in vitro” was above 250 µM. Also, in series [1], the 50% effective concentration (EC50) was determined as 7.2 ± 3 nM.
For the compound `O=C(NCc1ccc(F)cc1F)c1c(NCCc2ccccc2)c2cccnc2n(O)c1=O` [XZ382, N-(2,4-difluorobenzyl)-1-hydroxy-2-oxo-4-(phenethylamino)-1,2-dihydro-1,8-naphthyridine-3-carboxamide], the IC50 on HIV-1 integrase (setting [4]) was found to be 8 ± 1.5 µM; on HIV-1 integrase (setting [5]), 0.05 ± 0.012 µM. Besides, the 50% cytotoxic concentration (CC50) in the series “in vitro” was above 250 µM. Also, in series [1], the EC50 amounted to 14.1 ± 7.9 nM.
For `NCc1ccc(-c2ccc(Nc3c(C(=O)NCc4ccc(F)cc4F)c(=O)n(O)c4ncccc34)cc2)cc1` [XZ389, 4-((4′-(aminomethyl)-[1,1′-biphenyl]-4-yl)amino)-N-(2,4-difluorobenzyl)-1-hydroxy-2-oxo-1,2-dihydro-1,8-naphthyridine-3-carboxamide], the IC50 was above 333 µM at HIV-1 integrase (setting [6]) and 29 ± 13 µM on HIV-1 integrase (setting [7]). For the same compound, the 50% cytotoxic concentration (CC50) in “in vitro” was determined as 0.414 µM. The EC50 in series [1] amounted to 411 ± 30 nM.
`COC(=O)[C@H](C)Nc1c(C(=O)NCc2ccc(F)cc2F)c(=O)n(O)c2ncccc12` [XZ394, (S)-methyl 2-((3-((2,4-difluorobenzyl)carbamoyl)-1-hydroxy-2-oxo-1,2-dihydro-1,8-naphthyridin-4-yl)amino)propanoat]: in “in vitro”, the CC50 was above 250 µM. Also, the EC50 in series [1] was found to be 4.2 ± 1.6 nM.
With `COC(=O)[C@@H](Nc1c(C(=O)NCc2ccc(F)cc2F)c(=O)n(O)c2ncccc12)c1ccccc1` [XZ396, (S)-methyl 2-((3-((2,4-difluorobenzyl)carbamoyl)-1-hydroxy-2-oxo-1,2-dihydro-1,8-naphthyridin-4-yl)amino)-2-phenylacetate], the CC50 in the series “in vitro” was above 250 µM.
Take `O=C(NCc1ccc(F)cc1F)c1c(O)c2ccc(N3CCCCC3)nc2n(O)c1=O` [XZ409, N-(2,4-difluorobenzyl)-1,4-dihydroxy-2-oxo-7-(piperidin-1-yl)-1,2-dihydro-1,8-naphthyridine-3-carboxamide]: the IC50 on HIV-1 integrase (setting [6]) is above 333 µM; at HIV-1 integrase (setting [7]) it was 70 ± 16 µM.
`Nc1c(C(=O)NCc2ccc(F)cc2F)c(=O)n(O)c2nc(N3CCCCC3)ccc12` [XZ410, 4-amino-N-(2,4-difluorobenzyl)-1-hydroxy-2-oxo-7-(piperidin-1-yl)-1,2-dihydro-1,8-naphthyridine-3-carboxamide]: the IC50 on HIV-1 integrase (setting [6]) was above 333 µM; at HIV-1 integrase (setting [7]) it was 54 ± 18 µM.
Regarding `COC(=O)CNc1c(C(=O)NCc2ccc(F)cc2F)c(=O)n(O)c2nc(N3CCCCC3)ccc12` [XZ411, methyl 2-((3-((2,4-difluorobenzyl)carbamoyl)-1-hydroxy-2-oxo-7-(piperidin-1-yl)-1,2-dihydro-1,8-naphthyridin-4-yl)amino)acetate], the IC50 at HIV-1 integrase (setting [7]) amounted to 96 ± 40 µM.
Take `O=C(NCc1ccc(F)cc1F)c1c(O)c2ccc(N3CCOCC3)nc2n(O)c1=O` [XZ412, N-(2,4-difluorobenzyl)-1,4-dihydroxy-7-morpholino-2-oxo-1,2-dihydro-1,8-naphthyridine-3-carboxamide]: the IC50 was above 333 µM on HIV-1 integrase (setting [6]) and 1.9 ± 0.2 µM on HIV-1 integrase (setting [7]).
Consider `Nc1c(C(=O)NCc2ccc(F)cc2F)c(=O)n(O)c2nc(N3CCOCC3)ccc12` [XZ413, 4-amino-N-(2,4-difluorobenzyl)-1-hydroxy-7-morpholino-2-oxo-1,2-dihydro-1,8-naphthyridine-3-carboxamide], for which the IC50 at HIV-1 integrase (setting [6]) is above 333 µM; on HIV-1 integrase (setting [7]), 54 ± 10 µM.
As to `COC(=O)CNc1c(C(=O)NCc2ccc(F)cc2F)c(=O)n(O)c2nc(N3CCOCC3)ccc12` [XZ414, methyl 2-((3-((2,4-difluorobenzyl)carbamoyl)-1-hydroxy-7-morpholino-2-oxo-1,2-dihydro-1,8-naphthyridin-4-yl)amino)acetate], on HIV-1 integrase (setting [7]), the IC50 was 6.2 ± 0.8 µM.

(Values after US9676771B2, “Compounds for inhibiting drug-resistant strains of HIV-1 integrase” (priority 2013, dated 2017).)
